Test results as given in US11608323B2 (SYNGENTA LIMITED, priority 2013, dated 2023).

Key:
Assay type in all cases: in vivo
ECHCG [1] = assay: Post-emergence herbicidal activity, glasshouse pot test; conditions: Echinochloa crus-galli; application post-emergence; rate 1000 g/Ha; evaluated after 13 days
In short: (§1)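 Damage was rated 0-5 (5 = total) 13 days after a post-emergence spray of acetone/water (50:50) plus 0.5% Tween 20 formulation. Plants were sprayed at 8 days' growth and kept at 24/16° C, 14 h light, 65% humidity, watered twice daily.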

SETFA [2] = assay: as above; conditions: Setaria faberi; application post-emergence; rate 1000 g/Ha; evaluated after 13 days
In short: as §1

ALOMY [3] = assay: as above; conditions: Alopecurus myosuroides; application post-emergence; rate 1000 g/Ha; evaluated after 13 days
In short: as §1

ZEAMX [4] = assay: as above; conditions: Zea mays; application post-emergence; rate 1000 g/Ha; evaluated after 13 days
In short: as §1

ABUTH [5] = assay: as above; conditions: Abutilon theophrasti; application post-emergence; rate 1000 g/Ha; evaluated after 13 days
In short: as §1

AMARE [6] = assay: as above; conditions: Amaranthus retroflexus; application post-emergence; rate 1000 g/Ha; evaluated after 13 days
In short: as §1

ECHCG [7] = assay: Pre-emergence herbicidal activity, glasshouse pot test; conditions: rate 1000 g/Ha, evaluated after 13 days, scale 0-5
In short: (§2)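 Compounds are applied pre-emergence as an aqueous spray, formulated in 50:50 acetone/water containing 0.5% Tween 20, to pots sown one day earlier. Plants grow in a controlled glasshouse and are scored 13 days later for damage from 0 to 5.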

SETFA [8] = assay: as above; conditions: rate 1000 g/Ha, evaluated after 13 days, scale 0-5
In short: as §2

ALOMY [9] = assay: as above; conditions: rate 1000 g/Ha, evaluated after 13 days, scale 0-5
In short: as §2

ZEAMX [10] = assay: as above; conditions: rate 1000 g/Ha, evaluated after 13 days, scale 0-5
In short: as §2

ABUTH [11] = assay: as above; conditions: rate 1000 g/Ha, evaluated after 13 days, scale 0-5
In short: as §2

AMARE [12] = assay: as above; conditions: rate 1000 g/Ha, evaluated after 13 days, scale 0-5
In short: as §2

With `COc1cncc(-c2cnc(N3C(=O)N(C)C(C)C3O)cc2C(F)(F)F)c1` (stereo not drawn) [Compound A20] the “Post-emergence herbicidal activity ECHCG (damage score 0-5)” value (shortened to “Post-emergence herbicidal activity ECHCG”) (ECHCG [1]) was 5, the “Post-emergence herbicidal activity SETFA (damage score 0-5)” value (“Post-emergence herbicidal activity SETFA” below) (SETFA [2]) was 5 and the “Post-emergence herbicidal activity ALOMY (damage score 0-5)” value (from here on “Post-emergence herbicidal activity ALOMY”) (ALOMY [3]) was 5. The “Post-emergence herbicidal activity ZEAMX (damage score 0-5)” value (shortened to “Post-emergence herbicidal activity ZEAMX”) (ZEAMX [4]) was 4, the “Post-emergence herbicidal activity ABUTH (damage score 0-5)” value (“Post-emergence herbicidal activity ABUTH” below) (ABUTH [5]) was 5 and the “Post-emergence herbicidal activity AMARE (damage score 0-5)” value (from here on “Post-emergence herbicidal activity AMARE”) (AMARE [6]) was 5. For the same compound, the “ECHCG damage score, application pre-emergence” value (shortened to “ECHCG damage score”) (ECHCG [7]) was 4, the “SETFA damage score, application pre-emergence” value (from here on “SETFA damage score”) (SETFA [8]) was 5 and the “ALOMY damage score, application pre-emergence” value (“ALOMY damage score” for short) (ALOMY [9]) was 4. For the same compound, the “ZEAMX damage score, application pre-emergence” value (“ZEAMX damage score” for short) (ZEAMX [10]) was 5, the “ABUTH damage score, application pre-emergence” value (“ABUTH damage score” for short) (ABUTH [11]) was 5 and the “AMARE damage score, application pre-emergence” value (“AMARE damage score” for short) (AMARE [12]) was 5.
For `CN1C(=O)N(c2cc(C(F)(F)F)ccn2)C(O)C1CO` (stereo not drawn) [Compound A43], the “Post-emergence herbicidal activity ECHCG” value (ECHCG [1]) was 5, the “Post-emergence herbicidal activity SETFA” value (SETFA [2]) was 0 and the “Post-emergence herbicidal activity ALOMY” value (ALOMY [3]) was 1. For the same compound, the “Post-emergence herbicidal activity ZEAMX” value (ZEAMX [4]) was 2, the “Post-emergence herbicidal activity ABUTH” value (ABUTH [5]) was 5 and the “Post-emergence herbicidal activity AMARE” value (AMARE [6]) was 1. For the same compound, the “ECHCG damage score” value (ECHCG [7]) was 1, the “SETFA damage score” value (SETFA [8]) was 2 and the “ALOMY damage score” value (ALOMY [9]) was 1. The “ZEAMX damage score” value (ZEAMX [10]) was 0, the “ABUTH damage score” value (ABUTH [11]) was 5 and the “AMARE damage score” value (AMARE [12]) was 2.
For `COc1ccncc1-c1cnc(N2C(=O)N(C)C(C)C2O)cc1C(F)(F)F` (stereo not drawn) [Compound A23], the “Post-emergence herbicidal activity ECHCG” value (ECHCG [1]) was 2, the “Post-emergence herbicidal activity SETFA” value (SETFA [2]) was 4 and the “Post-emergence herbicidal activity ALOMY” value (ALOMY [3]) was 4. For the same compound, the “Post-emergence herbicidal activity ZEAMX” value (ZEAMX [4]) was 2, the “Post-emergence herbicidal activity ABUTH” value (ABUTH [5]) was 5 and the “Post-emergence herbicidal activity AMARE” value (AMARE [6]) was 5. The “ECHCG damage score” value (ECHCG [7]) was 2, the “SETFA damage score” value (SETFA [8]) was 3 and the “ALOMY damage score” value (ALOMY [9]) was 3. For the same compound, the “ZEAMX damage score” value (ZEAMX [10]) was 1, the “ABUTH damage score” value (ABUTH [11]) was 2 and the “AMARE damage score” value (AMARE [12]) was 5.
With `CON1C(=O)N(c2cc(C(F)(F)F)c(Cl)cn2)C(O)C1C` (stereo not drawn) [Compound A50] the “Post-emergence herbicidal activity ECHCG” value (ECHCG [1]) was 5, the “Post-emergence herbicidal activity SETFA” value (SETFA [2]) was 5 and the “Post-emergence herbicidal activity ALOMY” value (ALOMY [3]) was 5. The “Post-emergence herbicidal activity ZEAMX” value (ZEAMX [4]) was 5, the “Post-emergence herbicidal activity ABUTH” value (ABUTH [5]) was 5 and the “Post-emergence herbicidal activity AMARE” value (AMARE [6]) was 5. The “ECHCG damage score” value (ECHCG [7]) was 5, the “SETFA damage score” value (SETFA [8]) was 4 and the “ALOMY damage score” value (ALOMY [9]) was 4. The “ZEAMX damage score” value (ZEAMX [10]) was 2, the “ABUTH damage score” value (ABUTH [11]) was 5 and the “AMARE damage score” value (AMARE [12]) was 5.
For `CN1C(=O)N(c2cc(C(F)(F)F)ccn2)C(O)C1O` (stereo not drawn) [Compound A7, 4,5-dihydroxy-1-methyl-3-[4-(trifluoromethyl)-2-pyridyl]imidazolidin-2-one], the “Post-emergence herbicidal activity ECHCG” value (ECHCG [1]) was 5, the “Post-emergence herbicidal activity SETFA” value (SETFA [2]) was 5 and the “Post-emergence herbicidal activity ALOMY” value (ALOMY [3]) was 4. The “Post-emergence herbicidal activity ZEAMX” value (ZEAMX [4]) was 4, the “Post-emergence herbicidal activity ABUTH” value (ABUTH [5]) was 5 and the “Post-emergence herbicidal activity AMARE” value (AMARE [6]) was 5. The “ECHCG damage score” value (ECHCG [7]) was 3, the “SETFA damage score” value (SETFA [8]) was 4 and the “ALOMY damage score” value (ALOMY [9]) was 4. The “ZEAMX damage score” value (ZEAMX [10]) was 1, the “ABUTH damage score” value (ABUTH [11]) was 5 and the “AMARE damage score” value (AMARE [12]) was 5.
In the case of `CCOC1C(OC(=O)[C@@H](OC(C)=O)c2ccccc2)N(c2cc(C(F)(F)F)ccn2)C(=O)N1C` (stereo partly drawn) [Compound A97], the “Post-emergence herbicidal activity ECHCG” value (ECHCG [1]) is reported as 5, the “Post-emergence herbicidal activity SETFA” value (SETFA [2]) is reported as 5 and the “Post-emergence herbicidal activity ALOMY” value (ALOMY [3]) is reported as 5. The “Post-emergence herbicidal activity ZEAMX” value (ZEAMX [4]) was 3, the “Post-emergence herbicidal activity ABUTH” value (ABUTH [5]) was 5 and the “Post-emergence herbicidal activity AMARE” value (AMARE [6]) was 5. For the same compound, the “ECHCG damage score” value (ECHCG [7]) was 4, the “SETFA damage score” value (SETFA [8]) was 4 and the “ALOMY damage score” value (ALOMY [9]) was 4. For the same compound, the “ZEAMX damage score” value (ZEAMX [10]) was 3, the “ABUTH damage score” value (ABUTH [11]) was 5 and the “AMARE damage score” value (AMARE [12]) was 5.
